Experimental data reported in patent US12421249B2, “Inhibitors of APOL1 and methods of using same” (Vertex Pharmaceuticals Incorporated, priority 2020, dated 2025).

Tests used:
Assay type in all cases: cell-based
APOL1 G1 [1] = target: T1, APOL1 G1 (Homo sapiens, UniProt O14791, I384M/S342G); experiment: MultiTox-Fluor Multiplex Cytotoxicity Assay in tet-inducible APOL1 G1 T-REx-HEK293 cells (clone G1 DC3.25); set-up: expressed in transfected cells; host or cells: T-REx HEK293, pAAVS1-Puro-APOL1 G1, clone G1 DC3.25; details: Multi-Tox Assay, APOL1 variant cell line not given; for Emax: read-out: Multi-Tox Assay Max Activity (%); for IC50: IP50 = IC50 for cell proliferation
T1 sequence (O14791 28-398 S342G/I384M): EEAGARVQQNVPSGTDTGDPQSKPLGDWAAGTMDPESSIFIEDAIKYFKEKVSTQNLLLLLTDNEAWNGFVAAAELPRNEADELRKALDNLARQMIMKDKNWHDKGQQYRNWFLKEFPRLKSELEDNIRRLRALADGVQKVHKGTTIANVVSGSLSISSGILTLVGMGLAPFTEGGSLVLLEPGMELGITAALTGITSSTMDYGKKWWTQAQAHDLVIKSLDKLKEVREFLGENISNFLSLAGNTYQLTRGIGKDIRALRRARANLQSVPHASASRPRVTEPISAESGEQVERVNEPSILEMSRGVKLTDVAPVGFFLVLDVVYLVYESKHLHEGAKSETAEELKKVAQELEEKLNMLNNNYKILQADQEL
Experimental: The MultiTox-Fluor Multiplex Cytotoxicity Assay is a single-reagent-addition, homogeneous, fluorescence assay that measures the number of live and dead cells simultaneously in culture wells. The assay measures cell viability and cytotoxicity by detecting two distinct protease activities. The live-cell protease activity is restricted to intact viable cells and is measured using a fluorogenic, cell-permeant peptide glycyl-phenylalanylamino fluorocoumarin (GF-AFC) substrate. The substrate enters intact cells, where it is cleaved to generate a fluorescent signal proportional to the number of living cells. […] A second, cell-impermeant, fluorogenic peptide substrate (bis-AAF-R110 Substrate) is used to measure dead-cell protease that has been released from cells that have lost membrane integrity. A ratio of dead to live cells is used to normalize data.
Briefly, the tet-inducible transgenic APOL1 T-REx-HEK293 cell lines were incubated with 50 ng/mL tet to induce APOL1 in the presence of 3-(2-(4-fluorophenyl)-1H-indol-3-yl)-N-((3S,4R)-4-hydroxy-2-oxopyrrolidin-3-yl)propenamide at […], 0.0045, 0.0015, 0.0005 μM in duplicate for 24 hours in a humidified 37° C. incubator. The MultiTox reagent was added to each well and placed back in the incubator for an additional 30 minutes. The plate was read on the EnVision plate reader. A ratio of dead to live cells was used to normalize, and data was imported, analyzed and fit using Genedata Screener (Basel, Switzerland) software. Data was normalized using percent of control, no tet (100% viability), and 50 ng/mL tet treated (0% viability), and fit using Smart Fit. The reagents, methods, and complete protocol for the MultiTox assay are described below.
Human embryonic kidney (HEK293) cell lines containing a tet-inducible expression system (T-REx™; Invitrogen, Carlsbad, CA) and Adeno-associated virus site 1 pAAVS1-Puro-APOL1 G0 or pAAVS1-Puro-APOL1 G1 or pAAVS1-Puro-APOL1 G2 Clones G0 DC2.13, G1 DC3.25, and G2 DC4.44 were grown in a T-225 flask at ˜90% confluency in cell growth media (DMEM, 10% Tet-free FBS, 2 mM L-glutamine, 100 Units/mL penicillin-streptomycin, 5 μg/mL blasticidin S HCl, 1 μg/mL puromycin dihydrochloride). Cells were washed with DPBS and then trypsinized to dissociate from the flask. Media was used to quench the trypsin, cells were then pelleted at 200 g and resuspended in fresh cell assay media (DMEM, 2% Tet-free FBS, 2 mM L-glutamine, 100 Units/mL penicillin-streptomycin). Cells were counted and diluted to 1.17×10^6 cells/mL. 20 μL of cells (23,400/well) were dispensed to every well of a 384-well Poly-D-Lysine coated plate using the Multidrop dispenser. The plates were then incubated at room temperature for one hour.
Tetracycline is needed to induce APOL1 expression. 1 mg/mL tet stock in water was diluted to 250 ng/mL (5×) in cell assay media. 60 μL of cell assay media (no tet control) was dispensed in columns 1 and 24, and 60 μL of 5× tet was dispensed in 384-PP-round bottom plate in columns 2 to 23 with the Multidrop dispenser.
Assay ready plates from the Global Compound Archive were ordered using template 384_APOL1Cell_DR10n2_50 μM_v3. Compounds were dispensed at 200 nL in DMSO. The final top concentration was 10 μM with a 10 point 3-fold dilution in duplicate in the MultiTox assay.
20 μL were transferred from the 5× tet plate to the ARP and mixed, then 5 μL of 5× tet and the compounds were transferred to the cell plate and mixed using the Bravo. The cell plate was placed in the humidified 37° C. 5% CO2 incubator for 24 hours.
The MultiTox-Fluor Multiplex Cytotoxicity Assay was performed in accordance with the manufacturer's protocol. After cells were incubated with tet and compound for 24 hours, 25 μL of 1× MultiTox reagent was added to each well using the Multidrop dispenser; the plates were placed on a plate shaker (600 rpm) for 2 minutes, then centrifuged briefly and placed back in the 37° C. incubator for 30 minutes. […]

APOL1 G1 [2] = target: T1, APOL1 G1; experiment: Trypanosoma brucei brucei Lysis Assay Using APOL1 Recombinant Protein (AlamarBlue viability readout); details: Trypanosome Assay; for IC50: IP50 = IC50 for cell proliferation, read-out: Trypanosome Assay IP50; for Emax: read-out: Trypanosome Assay Max Activity (%)
How it was run: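 Percent viability comes from AlamarBlue (resazurin→resorufin) fluorescence interpolated on a standard curve of known parasite numbers, with no-APOL1 wells as 100%. Parasites (Lister 427 bloodstream form, 120,000/well, serum-free assay medium) meet 0.05 μg/mL APOL1 (~EC90). Compounds span a 10-point series, 0.1% DMSO final.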

APOL1 = target: T2, APOL1 (Homo sapiens, UniProt O14791); experiment: Multi-Tox Assay (MultiTox-Fluor Multiplex Cytotoxicity Assay in tet-inducible APOL1 T-REx-HEK293 cells; Table 46 does not say which APOL1 variant G0/G1/G2); details: APOL1 variant not given; for IC50: IP50 = IC50 for cell proliferation
T2 sequence (O14791 1-398 S342G/I384M): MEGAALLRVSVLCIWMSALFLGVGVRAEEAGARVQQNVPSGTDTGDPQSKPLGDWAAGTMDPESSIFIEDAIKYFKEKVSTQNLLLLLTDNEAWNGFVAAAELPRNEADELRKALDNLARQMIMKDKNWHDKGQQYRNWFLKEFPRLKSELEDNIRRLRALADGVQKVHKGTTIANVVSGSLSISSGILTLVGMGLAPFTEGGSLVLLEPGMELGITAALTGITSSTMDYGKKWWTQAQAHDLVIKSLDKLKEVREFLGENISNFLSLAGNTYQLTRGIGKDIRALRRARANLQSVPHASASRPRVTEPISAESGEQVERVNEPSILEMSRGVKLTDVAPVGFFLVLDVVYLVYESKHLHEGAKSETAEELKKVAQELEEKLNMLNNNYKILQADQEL

| Compound | IC50 (APOL1 G1 [2]) [nM] | IC50 (APOL1) [nM] | Emax (APOL1 G1 [2]) [%] | other results |
| --- | --- | --- | --- | --- |
| C[C@H]1C[C@@]2(C[C@@H](c3cn(C[C@@H](O)CO)nn3)N1)OCC(F)(F)c1cc(Cl)sc12 [Compound 363] | – | – | – | Emax (APOL1 G1 [1]): 99%; IC50 (APOL1 G1 [1]): < 50 nM |
| Cn1cc([C@@H]2C[C@]3(C[C@H](C4CC4)N2)OC[C@@H](O)c2cc(Cl)sc23)nn1 [Compound 382, (2′R,4S,6′S, 7S)-2-chloro-2′-cyclopropyl-6′-(1-methyltriazol-4-yl)spiro[4,5-dihydrothieno[2,3-c]pyran-7,4′-piperidine]-4-ol] | – | – | – | IC50 (APOL1 G1 [1]): < 50 nM |
| C[C@H]1C[C@@]2(C[C@@H](c3cn(CC(C)(C)O)nn3)N1)OCC(F)(F)c1cc(Cl)sc12 [Compound 364] | – | – | – | Emax (APOL1 G1 [1]): 95% |
| C[C@H]1C[C@@]2(C[C@@H](c3cn(Cc4cncs4)nn3)N1)OCC(F)(F)c1cc(Cl)sc12 [Compound 365] | – | – | – | Emax (APOL1 G1 [1]): 99%; IC50 (APOL1 G1 [1]): < 50 nM |
| CCOC(=O)C1CC1[C@@H]1C[C@]2(C[C@H](C)N1)OCCc1cc(Cl)sc12 (stereo in doubt) [Compound 374] | – | – | – | IC90 (APOL1 G1 [1]): 50 to 500 nM; Emax (APOL1 G1 [1]): 99%; IC50 (APOL1 G1 [1]): < 50 nM |
| C[C@H]1C[C@@]2(C[C@@H](c3cn(CC4CCC(=O)NC4)nn3)N1)OCC(F)(F)c1cc(Cl)sc12 (stereo partly shown) [Compound 368] | – | – | – | Emax (APOL1 G1 [1]): 96% |
| Cn1cc(C2CC3(CC(C(F)F)N2)OCCc2cc(C(F)(F)F)sc23)nn1 (stereo not shown) [Compound 389, 2′-(difluoromethyl)-6′-(1-methyltriazol-4-yl)-2-(trifluoromethyl)spiro[4,5-dihydrothieno[2,3-c]pyran-7,4′-piperidine]] | – | – | – | IC50 (APOL1 G1 [1]): 50 to 500 nM |
| COC(=O)C1([C@@H]2C[C@]3(C[C@H](C)N2)OCCc2cc(Cl)sc23)CC1 [Compound 372, methyl 1-[(2′S, 6′S, 7S)-2-chloro-6′-methyl-spiro[4,5-dihydrothieno[2,3-c]pyran-7,4′-piperidine]-2′-yl]cyclopropanecarboxylate] | – | – | – | Emax (APOL1 G1 [1]): 92%; IC50 (APOL1 G1 [1]): > 500 nM |
| C[C@H]1C[C@@]2(C[C@@H](c3cn(C)nn3)N1)OC[C@@H](O)c1sc(C(F)(F)F)cc12 [Compound 390, (2′S,4S,6′S, 7R)-2′-methyl-6′-(1-methyltriazol-4-yl)-2-(trifluoromethyl)spiro[6,7-dihydrothieno[3,2-c]pyran-4,4′-piperidine]-7-ol] | – | – | – | IC50 (APOL1 G1 [1]): < 50 nM |
| C[C@H]1CC2(CC(c3cnn(C)c3)N1)OCC(O)c1cc(Cl)sc12 (single isomer, unassigned) [Compound 176] | < 50 | < 50 | – | Trypanosome Assay Max Activity (%) (APOL1 G1 [2]): 115.5%; IC90 (APOL1): < 50 nM; Multi-Tox Assay Max Activity (%) (APOL1): 100.0% |
| C[C@H]1C[C@@]2(C[C@@H](c3ccc(S(N)(=O)=O)cc3F)N1)OCCc1cc(Cl)sc12 (racemic) [Compound 78] | < 50 | < 50 | 102 | – |
| C[C@H]1C[C@@]2(C[C@@H](c3ccnnc3)N1)OCCc1cc(Cl)sc12 (racemic) [Compound 93] | 50 to 500 | < 50 | 112 | – |
| C[C@H]1C[C@@]2(C[C@@H](c3ccc4cn[nH]c4c3)N1)OCCc1cc(Cl)sc12 (racemic) [Compound 67] | < 50 | < 50 | 105 | – |
| CC1CC2(CC(C(C)C)N1)OCCc1cc(Cl)sc12 (mixture of isomers) [Compound 214] | 50 to 500 | < 50 | 109 | – |
| C[C@H]1C[C@@]2(C[C@@H](c3cnc(C4CCOCC4)o3)N1)OCCc1cc(Cl)sc12 (racemic) [Compound 140] | 50 to 500 | 50 to 500 | 102 | Multi-Tox Assay Max Activity (%) (APOL1): 99.7% |
| CCC1CC2(CC(C)N1)OCCc1cc(Cl)sc12 (mixture of isomers) [Compound 215] | 50 to 500 | < 50 | 112 | – |
| Cc1c([C@@H]2C[C@]3(C[C@H](C)N2)OCCc2cc(Cl)sc23)cnn1C (racemic) [Compound 136] | 50 to 500 | 50 to 500 | 100 | – |
| Cc1ccc([C@@H]2C[C@]3(C[C@H](C)N2)OCCc2cc(Cl)sc23)nc1 (racemic) [Compound 77] | < 50 | < 50 | 110 | – |
| Cc1coc([C@@H]2C[C@]3(C[C@H](C)N2)OCCc2cc(Cl)sc23)n1 (racemic) [Compound 155] | > 500 | 50 to 500 | 97 | – |
| C[C@@H]1CC2(C[C@H](C)N1)OCCc1cc(C(F)(F)F)sc12 (single isomer, unassigned) [Compound 207] | < 50 | < 50 | 108 | – |
| C[C@H]1C[C@@]2(C[C@@H](c3ccn(C)n3)N1)OCCc1cc(Cl)sc12 (racemic) [Compound 118] | 50 to 500 | < 50 | 98 | Multi-Tox Assay Max Activity (%) (APOL1): 99.3% |
| C[C@@H]1CC2(C[C@H](C)N1)OCCc1c2sc(C(F)(F)F)c1CO (single isomer, unassigned) [Compound 208] | 50 to 500 | < 50 | 103 | – |
| C[C@H]1C[C@@]2(C[C@@H](c3cnc(N)nc3)N1)OCCc1cc(Cl)sc12 (racemic) [Compound 57] | < 50 | < 50 | 105 | Multi-Tox Assay Max Activity (%) (APOL1): 99.7% |
| Cn1cc(C2CC3(CC(C4CCC4)N2)OCCc2cc(Cl)sc23)nn1 (stereo not shown) [Compound 189] | > 500 | 50 to 500 | 87.5 | – |
